Biological target: T1, malate dehydrogenase (Mdh3) (Cryptococcus neoformans, UniProt J9VXN5)
T1 construct: gene CNAG_03225; Mdh3-MBP fusion protein expressed in S. cerevisiae
T1 sequence (J9VXN5 1-338): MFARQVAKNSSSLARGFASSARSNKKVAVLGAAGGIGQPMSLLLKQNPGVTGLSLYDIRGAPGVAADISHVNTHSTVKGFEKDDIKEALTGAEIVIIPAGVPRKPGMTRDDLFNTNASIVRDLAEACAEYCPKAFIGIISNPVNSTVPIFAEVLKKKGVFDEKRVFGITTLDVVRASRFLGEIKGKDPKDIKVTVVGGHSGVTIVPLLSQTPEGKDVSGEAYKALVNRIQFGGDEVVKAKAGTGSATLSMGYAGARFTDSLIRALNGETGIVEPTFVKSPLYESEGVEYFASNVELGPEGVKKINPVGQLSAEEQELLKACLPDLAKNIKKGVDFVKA
Assay: steady-state enzyme kinetics with recombinant Mdh3-MBP, NAD turnover at […] nm, with or without […] bithionol
Type: biochemical

Oc1c(Cl)cc(Cl)cc1Sc1cc(Cl)cc(Cl)c1O [bithionol]
Ki: 3 µM

Reference: publication PMC4981720, “Identification of Multiple Cryptococcal Fungicidal Drug Targets by Combined Gene Dosing and Drug Affinity Responsive Target Stability Screening” (mBio, 2016)
